From US7098334B2 (Industrial Research Limited, priority 2002, dated 2006)
Structures can show the parent of a compound that is named as a salt. Where two headings read alike, the source gives them in different places.

Columns and labels:
human MTAP = molecular target: T1, human MTAP (Homo sapiens, UniProt Q13126); assay: Enzyme inhibition assay, MTAP (slow-onset inhibition constants); format: biochemical; conditions: for Ki: MTAP
T1 construct: inferred from pQE32 vector and Ni-NTA purification) (N); made in house; host or cells: E. coli
T1 sequence (Q13126 1-283): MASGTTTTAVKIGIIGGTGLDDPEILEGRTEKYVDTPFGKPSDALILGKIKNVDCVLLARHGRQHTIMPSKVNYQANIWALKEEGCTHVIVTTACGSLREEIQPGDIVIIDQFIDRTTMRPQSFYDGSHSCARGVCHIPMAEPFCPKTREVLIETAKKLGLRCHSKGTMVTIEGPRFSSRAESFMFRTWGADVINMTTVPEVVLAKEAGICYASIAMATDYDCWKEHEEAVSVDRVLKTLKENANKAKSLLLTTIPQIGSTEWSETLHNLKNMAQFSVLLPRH
Method: (§1) Ki as shown in Tables 1 and 2 is the initial inhibition constant formed by the enzyme-inhibitor complex, and Ki* is the equilibrium dissociation constant for inhibition that is observed following a period of slow-onset, tight binding inhibition. Ki* is the biologically effective constant.
(§2) Enzyme assays were conducted to assess the effectiveness of selected compounds of the invention as inhibitors of MTAP and MTAN.
Enzymes.—The human MTAP protein was cloned into pQE32 expression vector and transformed into E. coli. Induction cultures containing 1 L (25 mg/L) and 50 μg/mL ampicillin were inoculated with 1 mL overnight grown starter-culture and incubated at 37° C. When the cultures reached an OD of ≈0.6 they were induced with 1.5 mM IPTG for 6 to 8 hours. Cells were harvested by centrifugation at 5000 rpm for 30 min, and subsequently resuspended in a buffer (20 mM imidazole, 300 mM NaCl, 0.2 mM phenylmethylsulfonyl fluoride (PMSF), 100 mM Tris, pH 8.0) containing a small amount of lysozyme to weaken the cell membrane. Cells were lysed with a French press. The insoluble material was removed by high-speed centrifugation. The cell extract was further clarified with 35% ammonium sulfate precipitation followed by high-speed centrifugation. The clarified cell extract was then applied to a 5 mL Ni-NTA column that had previously been equilibrated with the binding buffer. Further chromatographic steps were carried out by FPLC. The column was washed with 10 volumes of 50 mM imidazole, 300 mM NaCl, and 100 mM Tris, pH 8.0, and the protein was eluted with a buffer containing a 50–250 mM gradient of imidazole, 300 mM NaCl, 1 M Tris, pH 8.0. The purity of the protein was verified by running polyacrylamide gel followed by Coomassie staining. The protein was subsequently dialyzed in 50 mM NaCl, 2 mM dithiothreitol (DTT) and 50 mM Tris, pH 7.4, and was concentrated to 10 mg/mL. The purified protein was stored at −80° C. in 100 μL to 150 μL aliquots.
(§3) Inhibitors.—Inhibitor concentrations were determined by the UV absorbance spectrum using the published millimolar extinction coefficients for 9-dazadenine of 8.5 at 275 nm at pH 7.0.
(§4) Assays.—The direct spectrophotometric assay for the conversion of MTA into adenine was measured as the decrease in absorbance at 274 nm. At 274 nm, Δε between MTA and adenine is at a maximum and produces a spectral change of 1.6 absorbance units/cm/mM (DeWolf, W. E. Jr., Fullin, F. A., and Schramm, V. L. (1979) J. Biol. Chem. 254, 10868–10875)
(§5) This concentration corresponds to an OD of 0.7–1.1 at 274 nM. The formation of product was monitored as a decrease in absorbance at 274 nm. Conditions for Ki* determination used high concentrations of substrate. Two controls, one having no inhibitor and the other no enzyme were included in the experiment. The Ki values MTAP for the various compounds were calculated by fitting in the ratio of initial rates in the presence of inhibitor to without any inhibitor versus the inhibitor concentration, for the known Km and substrate concentration into the following expression.
(§6) Where Vo′ is the rate in the presence of inhibitor • Vo rate in the absence of inhibitor • [I] inhibitor concentration • And [S] is the substrate concentration
(§7) And the Ki* was calculated by fitting to the following expression
(§8) Where Vs′ is the steady-state rate following attainment of equilibrium in the presence inhibitor, and Vs is the steady-state rate in the control having no inhibitor. Both these equations are valid for competitive type inhibition.

MTAN = MTAN (Escherichia coli, UniProt P0AF12); assay: Enzyme inhibition assay, MTAN (slow-onset inhibition constants); format: biochemical; conditions: for Ki: MTAN
Method: as §1, §2, §3, §4
as §5, with “Slow-Onset Inhibition and Inhibition Constants.—The kinetics for slow onset inhibition and the Ki measurement was carried out by adding a known concentration of enzyme (1–5 nM) to a reaction mixture containing a substrate concentration of 200 μM. This” for “This”
as §6, §7, §8

[1] = equilibrium dissociation constant after slow-onset, tight binding inhibition, read-out: Ki*
[2] = initial inhibition constant, read-out: Ki
[3] = Ki*, equilibrium dissociation constant after slow-onset, tight binding inhibition
[4] = Ki, initial inhibition constant

inhibition of MTAP (in words) (human MTAP) | Compound | Ki (human MTAP; [1]) | Ki (human MTAP; [2]) | Ki (MTAN; [1]) | Ki (MTAN; [2]) | Ki (MTAN; [3]) | Ki (MTAN; [4]) | inhibition of MTAN (in words) (MTAN)
 | Nc1ncnc2c([C@@H]3N[C@H](CSc4ccccc4)[C@H](O)C3O)c[nH]c12 (stereo partly shown) | 0.082 ± 0.009 nM | 0.89 ± 0.12 nM | 0.032 ± 0.002 nM | 0.046 ± 0.003 nM |  |  | 
 | Nc1ncnc2c([C@@H]3N[C@H](CSc4cccc(Cl)c4)[C@H](O)C3O)c[nH]c12 (stereo partly drawn) [5′-(m-Chloro-Phenyl-thio)-ImmA, (1S)-1-(9-Deazaadenin-9-yl)-5-(3-chlorophenyl)thio-1,4-dideoxy-1,4-imino-D-ribitol] |  | 4 ± 0.4 nM |  |  | 0.02 ± 0.002 nM | 0.044 ± 0.004 nM | 
 | Cc1cccc(SC[C@H]2N[C@@H](c3c[nH]c4c(N)ncnc34)C(O)[C@H]2O)c1 (stereo partly shown) [5′-(m-tolylthio)-ImmA] | 0.146 ± 0.048 nM | 0.602 ± 0.032 nM |  |  | 0.009 ± 0.001 nM | 0.015 ± 0.0006 nM | 
 | Nc1ncnc2c([C@@H]3N[C@H](CSc4ccc(Cl)cc4)[C@H](O)C3O)c[nH]c12 (stereo partly drawn) [5′-(p-Chloro-Phenyl-thio)-ImmA, (1S)-1-(9-Deazaadenin-9-yl)-5-(4-chlorophenyl)thio-1,4-dideoxy-1,4-imino-D-ribitol] | 0.09 ± 0.02 nM | 0.334 ± 0.036 nM |  |  | 0.006 nM | 0.006 ± 0.0003 nM | 
 | Nc1ncnc2c([C@@H]3N[C@H](CSc4ccc(F)cc4)[C@H](O)C3O)c[nH]c12 (stereo partly shown) [5′-(p-Fluoro-phenyl-thio)-ImmA] |  | 3 ± 0.2 nM |  |  | 0.02 ± 0.004 nM | 0.082 ± 0.007 nM | 
 | Cc1ccc(SC[C@H]2N[C@@H](c3c[nH]c4c(N)ncnc34)C(O)[C@H]2O)cc1 (stereo partly shown) [5′-(p-tolylthio)-ImmA] | 0.252 ± 0.023 nM | 1.6 ± 0.2 nM |  |  | 0.008 ± 0.001 nM | 0.018 ± 0.001 nM | 
 | Nc1ncnc2c([C@@H]3N[C@H](CSCc4ccccc4)[C@H](O)C3O)c[nH]c12 (stereo partly drawn) [5′-Benzylthio-ImmA, (1S)-1-(9-Deazaadenin-9-yl)-5-benzylthio-1,4-dideoxy-1,4-imino-D-ribitol] |  | 12 ± 1 nM |  |  | 0.012 ± 0.001 nM | 0.038 ± 0.003 nM | 
 | CCSC[C@H]1N[C@@H](c2c[nH]c3c(N)ncnc23)C(O)[C@H]1O (stereo partly shown) [5′-Ethylthio-ImmA] | 0.26 ± 0.015 nM | 18 ± 2 nM |  |  | 0.027 ± 0.0003 nM | 0.073 ± 0.011 nM | 
 | Nc1ncnc2c([C@@H]3N[C@H](CSCCF)[C@H](O)C3O)c[nH]c12 (stereo partly shown) [5′-Fluoroethylthio-ImmA] | 1.5 ± 0.17 nM | 7 ± 0.5 nM |  |  | 0.03 ± 0.003 nM | 0.103 ± 0.011 nM | 
 | Nc1ncnc2c([C@@H]3N[C@H](CSCCO)[C@H](O)C3O)c[nH]c12 (stereo partly shown) [5′-Hydroxyethylthio-ImmA] |  | 22 ± 2 nM |  |  |  | 0.407 ± 0.016 nM | 
 | COC[C@H]1N[C@@H](c2c[nH]c3c(N)ncnc23)[C@H](O)[C@@H]1O [5′-Methoxy-ImmA, (1S)-1-(9-deazaadenin-9-yl)-1,4-dideoxy-1,4-imino-5-O-methyl-D-ribitol hydrochloride] |  | 70 ± 5 nM |  |  |  | 10 ± 1 nM | 
 | Nc1ncnc2c([C@@H]3N[C@H](CSc4cccc5ccccc45)[C@H](O)C3O)c[nH]c12 (stereo partly shown) [5′-Napthylthio-ImmA] |  | 52 ± 5 nM |  |  |  | 0.75 ± 0.033 nM | 
 | CCC[C@H]1N[C@@H](c2c[nH]c3c(N)ncnc23)[C@H](O)[C@@H]1O [5′-deoxy-5′-ethyl-ImmA, (1S)-1-(9-Deazaadenin-9-yl)-1,4,5-trideoxy-5-ethyl-1,4-imino-D-ribitol] |  |  | 0.038 ± 0.005 nM | 0.121 ± 0.005 nM |  |  | 
 | C[C@H]1N[C@@H](c2c[nH]c3c(N)ncnc23)[C@H](O)[C@@H]1O [5′-deoxy-ImmA, (1S)-1-(9-deazaadenin-9-yl)-1,4,5-trideoxy-1,4-imino-D-ribitol hydrochloride] |  | 220 ± 14 nM |  |  |  | 13 ± 1 nM | 
 | CSC[C@H]1N[C@@H](c2n[nH]c3c(N)ncnc23)C(O)[C@H]1O (stereo partly drawn) [5′-methylthio-8-aza-ImmA, (1S)-1-(7-Amino-1H-pyrazolo[4,3-d]pyrimidin-3-yl)-1,4-dideoxy-1,4-imino-5-methylthio-D-ribitol] | 0.76 ± 0.14 nM | 7 ± 1 nM |  |  | 0.026 ± 0.0003 nM | 0.055 ± 0.003 nM | 
no inhibition | Nc1ncnc2c([C@@H]3N[C@H](CO)C(O)C3O)c[nH]c12 (stereo partly shown) [Immucillin A, reference compound] |  |  |  |  |  |  | 
 | CSC[C@H]1N[C@@H](c2c[nH]c3c(=O)[nH]cnc23)C(O)C1O (stereo partly shown) [methylthio-ImmH, reference compound] |  |  |  |  |  |  | no inhibition
